Source: ChEMBL document CHEMBL1131977, “Synthesis and in vitro activity of new oxazolidinone antibacterial agents having substituted isoxazoles” (1999)
≈ marks a conversion by molar mass, not a printed value.

Legend:
Assay type in all cases: functional
[1] = system: Staphylococcus aureus; experiment: In vitro antibacterial activity against ciprofloxacin-resistant Staphylococcus aureus (CRSA) C6043.
[2] = system: Staphylococcus aureus; experiment: In vitro antibacterial activity against methicillin-resistant Staphylococcus aureus (MRSA) C6068.
[3] = system: Enterococcus faecium; experiment: In vitro antibacterial activity against Enterococcus faecium C6301 (E.f.2).
[4] = system: Enterococcus faecalis; experiment: In vitro antibacterial activity against Enterococcus faecalis C6291 (E.f.1).
[5] = system: Staphylococcus epidermidis; experiment: In vitro antibacterial activity against Staphylococcus epidermis (S.e.2) C2235.
[6] = system: Staphylococcus aureus; experiment: In vitro antibacterial activity against methicillin-susceptible Staphylococcus aureus (MSSA) C2214.
[7] = system: Staphylococcus epidermidis; experiment: In vitro antibacterial activity against Staphylococcus epidermis (S.e.1) […].
[8] = system: Streptococcus pyogenes; experiment: In vitro antibacterial activity against Streptococcus pyogenes ATCC 8668 (S.p.1).
[9] = system: Streptococcus pyogenes; experiment: In vitro antibacterial activity against Streptococcus pyogenes C6003 (S.p.2).
[10] = system: Enterococcus faecium; experiment: In vitro antibacterial activity against vancomycin-resistant Enterococcus faecium C6487 (VRE).
[11] = system: Staphylococcus aureus; experiment: In vitro antibacterial activity against Staphylococcus aureus (S. a.) ATCC 29213.

Row | SMILES | MIC [1] | MIC [2] | MIC [3] | MIC [4] | MIC [5] | MIC [6] | MIC [7] | MIC [8] | MIC [9] | MIC [10] | MIC [11]
1 | CC(=O)NC[C@H]1CN(c2ccc(N3CCN(C(=O)c4cccs4)CC3)c(F)c2)C(=O)O1 | 2 µg/mL (≈ 4.48 µM) | 1 µg/mL (≈ 2.24 µM) | 2 µg/mL (≈ 4.48 µM) | 2 µg/mL (≈ 4.48 µM) | 1 µg/mL (≈ 2.24 µM) | 2 µg/mL (≈ 4.48 µM) | 0.5 µg/mL (≈ 1.12 µM) | 1 µg/mL (≈ 2.24 µM) | 1 µg/mL (≈ 2.24 µM) | 2 µg/mL (≈ 4.48 µM) | 2 µg/mL (≈ 4.48 µM)
2 | CC(=O)NC[C@H]1CN(c2ccc(N3CCN(Cc4cc(-c5ccc(C#N)cc5)no4)CC3)c(F)c2)C(=O)O1 | 16 µg/mL (≈ 30.9 µM) | 8 µg/mL (≈ 15.4 µM) | 16 µg/mL (≈ 30.9 µM) | 16 µg/mL (≈ 30.9 µM) | 8 µg/mL (≈ 15.4 µM) | 16 µg/mL (≈ 30.9 µM) | 4 µg/mL (≈ 7.71 µM) | 2 µg/mL (≈ 3.86 µM) | 2 µg/mL (≈ 3.86 µM) | 8 µg/mL (≈ 15.4 µM) | 16 µg/mL (≈ 30.9 µM)
3 | CC(=O)NC[C@H]1CN(c2ccc(N3CCN(C(=O)c4nccs4)CC3)c(F)c2)C(=O)O1 | 4 µg/mL (≈ 8.94 µM) | 2 µg/mL (≈ 4.47 µM) | 4 µg/mL (≈ 8.94 µM) | 4 µg/mL (≈ 8.94 µM) | 2 µg/mL (≈ 4.47 µM) | 4 µg/mL (≈ 8.94 µM) | 1 µg/mL (≈ 2.23 µM) | 1 µg/mL (≈ 2.23 µM) | 1 µg/mL (≈ 2.23 µM) | 4 µg/mL (≈ 8.94 µM) | 4 µg/mL (≈ 8.94 µM)
4 | COc1ccc(-c2cc(CN3CCN(c4ccc(N5C[C@H](CNC(C)=O)OC5=O)cc4F)CC3)on2)cc1OC | 4 µg/mL (≈ 7.23 µM) | 2 µg/mL (≈ 3.61 µM) | 4 µg/mL (≈ 7.23 µM) | 4 µg/mL (≈ 7.23 µM) | 4 µg/mL (≈ 7.23 µM) | 4 µg/mL (≈ 7.23 µM) | 2 µg/mL (≈ 3.61 µM) | 2 µg/mL (≈ 3.61 µM) | 1 µg/mL (≈ 1.81 µM) | 2 µg/mL (≈ 3.61 µM) | 4 µg/mL (≈ 7.23 µM)
5 | CC(=O)NC[C@H]1CN(c2ccc(N3CCN(C(=O)c4cc(-c5cccs5)no4)CC3)c(F)c2)C(=O)O1 | 1 µg/mL (≈ 1.95 µM) | 1 µg/mL (≈ 1.95 µM) | 1 µg/mL (≈ 1.95 µM) | 1 µg/mL (≈ 1.95 µM) | 1 µg/mL (≈ 1.95 µM) | 1 µg/mL (≈ 1.95 µM) | 0.25 µg/mL (≈ 0.487 µM) | 0.5 µg/mL (≈ 0.974 µM) | 0.5 µg/mL (≈ 0.974 µM) | 1 µg/mL (≈ 1.95 µM) | 1 µg/mL (≈ 1.95 µM)
6 | COc1cccc(-c2cc(CN3CCN(c4ccc(N5C[C@H](CNC(C)=O)OC5=O)cc4F)CC3)on2)c1 | 2 µg/mL (≈ 3.82 µM) | 4 µg/mL (≈ 7.64 µM) | 4 µg/mL (≈ 7.64 µM) | 8 µg/mL (≈ 15.3 µM) | 4 µg/mL (≈ 7.64 µM) | 4 µg/mL (≈ 7.64 µM) | 4 µg/mL (≈ 7.64 µM) | 4 µg/mL (≈ 7.64 µM) | 1 µg/mL (≈ 1.91 µM) | 1 µg/mL (≈ 1.91 µM) | 4 µg/mL (≈ 7.64 µM)
7 | CC(=O)NC[C@H]1CN(c2ccc(N3CCN(C(=O)c4cc(C(=O)N(C)C)no4)CC3)c(F)c2)C(=O)O1 | 8 µg/mL (≈ 15.9 µM) | 2 µg/mL (≈ 3.98 µM) | 4 µg/mL (≈ 7.96 µM) | 4 µg/mL (≈ 7.96 µM) | 2 µg/mL (≈ 3.98 µM) | 8 µg/mL (≈ 15.9 µM) | 2 µg/mL (≈ 3.98 µM) | 1 µg/mL (≈ 1.99 µM) | 1 µg/mL (≈ 1.99 µM) | 4 µg/mL (≈ 7.96 µM) | 8 µg/mL (≈ 15.9 µM)
8 | CC(=O)NC[C@H]1CN(c2ccc(N3CCN(Cc4cc(C)no4)CC3)c(F)c2)C(=O)O1 | 16 µg/mL (≈ 37.1 µM) | 16 µg/mL (≈ 37.1 µM) | 16 µg/mL (≈ 37.1 µM) | 16 µg/mL (≈ 37.1 µM) | 16 µg/mL (≈ 37.1 µM) | 16 µg/mL (≈ 37.1 µM) | 16 µg/mL (≈ 37.1 µM) | 16 µg/mL (≈ 37.1 µM) | 16 µg/mL (≈ 37.1 µM) | 16 µg/mL (≈ 37.1 µM) | 16 µg/mL (≈ 37.1 µM)
9 | CC(=O)NC[C@H]1CN(c2ccc(N3CCN(C(=O)c4cc(Br)no4)CC3)c(F)c2)C(=O)O1 | 2 µg/mL (≈ 3.92 µM) | 1 µg/mL (≈ 1.96 µM) | 4 µg/mL (≈ 7.84 µM) | 2 µg/mL (≈ 3.92 µM) | 2 µg/mL (≈ 3.92 µM) | 2 µg/mL (≈ 3.92 µM) | 1 µg/mL (≈ 1.96 µM) | 1 µg/mL (≈ 1.96 µM) | 1 µg/mL (≈ 1.96 µM) | 2 µg/mL (≈ 3.92 µM) | 4 µg/mL (≈ 7.84 µM)
10 | CC(=O)NC[C@H]1CN(c2ccc(N3CCN(Cc4cc(-c5cccs5)no4)CC3)c(F)c2)C(=O)O1 | 2 µg/mL (≈ 4 µM) | 4 µg/mL (≈ 8.01 µM) | 2 µg/mL (≈ 4 µM) | 2 µg/mL (≈ 4 µM) | 1 µg/mL (≈ 2 µM) | 4 µg/mL (≈ 8.01 µM) | 4 µg/mL (≈ 8.01 µM) | 1 µg/mL (≈ 2 µM) | 1 µg/mL (≈ 2 µM) | 22 µg/mL (≈ 44 µM) | 4 µg/mL (≈ 8.01 µM)
11 | CC(=O)NC[C@H]1CN(c2ccc(N3CCN(C(=O)c4cc(-c5nccs5)no4)CC3)c(F)c2)C(=O)O1 | 0.5 µg/mL (≈ 0.972 µM) | 0.5 µg/mL (≈ 0.972 µM) | 1 µg/mL (≈ 1.94 µM) | 1 µg/mL (≈ 1.94 µM) | 0.5 µg/mL (≈ 0.972 µM) | 1 µg/mL (≈ 1.94 µM) | 0.5 µg/mL (≈ 0.972 µM) | 0.25 µg/mL (≈ 0.486 µM) | 0.5 µg/mL (≈ 0.972 µM) | 0.5 µg/mL (≈ 0.972 µM) | 2 µg/mL (≈ 3.89 µM)
12 | CC(=O)NC[C@H]1CN(c2ccc(N3CCN(C(=O)c4cc(C(=O)O)no4)CC3)c(F)c2)C(=O)O1 |  |  | > 32 µg/mL | > 32 µg/mL | > 32 µg/mL | > 32 µg/mL | > 32 µg/mL | 16 µg/mL (≈ 33.7 µM) | 16 µg/mL (≈ 33.7 µM) |  | > 32 µg/mL
13 | CC(=O)NC[C@H]1CN(c2ccc(N3CCN(Cc4cc(-c5ccccn5)no4)CC3)c(F)c2)C(=O)O1 | 2 µg/mL (≈ 4.04 µM) | 2 µg/mL (≈ 4.04 µM) | 2 µg/mL (≈ 4.04 µM) | 2 µg/mL (≈ 4.04 µM) | 1 µg/mL (≈ 2.02 µM) | 4 µg/mL (≈ 8.09 µM) | 1 µg/mL (≈ 2.02 µM) | 0.5 µg/mL (≈ 1.01 µM) | 0.5 µg/mL (≈ 1.01 µM) | 2 µg/mL (≈ 4.04 µM) | 2 µg/mL (≈ 4.04 µM)
